Data taken from PubChem BioAssay (NCI).
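Assay format: 96-well plates, 48-hour exposure. GI50 marks 50% less growth. TGI: concentration producing complete growth inhibition.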

Assays:
Experiment in all cases: NCI-60 cell line screen, 48 h
NCI-H226 lung = tested on: NCI-H226 lung
RPMI-8226 leukemia = tested on: RPMI-8226 leukemia
SR leukemia = tested on: SR leukemia
OVCAR-8 ovarian = tested on: OVCAR-8 ovarian
OVCAR-3 ovarian = tested on: OVCAR-3 ovarian
PC-3 prostate = tested on: PC-3 prostate
MCF7 breast = tested on: MCF7 breast
HCT-116 colon = tested on: HCT-116 colon
OVCAR-4 ovarian = tested on: OVCAR-4 ovarian
HCT-15 colon = tested on: HCT-15 colon
T-47D breast = tested on: T-47D breast
NCI-H522 lung = tested on: NCI-H522 lung
BT-549 breast = tested on: BT-549 breast
ACHN renal = tested on: ACHN renal
786-0 renal = tested on: 786-0 renal
CAKI-1 renal = tested on: CAKI-1 renal
SK-OV-3 ovarian = tested on: SK-OV-3 ovarian
UACC-62 melanoma = tested on: UACC-62 melanoma
M14 melanoma = tested on: M14 melanoma
HS 578T breast = tested on: HS 578T breast
RXF 393 renal = tested on: RXF 393 renal
SF-295 CNS = tested on: SF-295 CNS
COLO 205 colon = tested on: COLO 205 colon
SK-MEL-5 melanoma = tested on: SK-MEL-5 melanoma
A498 renal = tested on: A498 renal
SN12C renal = tested on: SN12C renal
EKVX NSCLC = tested on: EKVX NSCLC
MDA-MB-468 breast = tested on: MDA-MB-468 breast
OVCAR-5 ovarian = tested on: OVCAR-5 ovarian
SK-MEL-2 melanoma = tested on: SK-MEL-2 melanoma
MOLT-4 leukemia = tested on: MOLT-4 leukemia
NCI-H23 lung = tested on: NCI-H23 lung
MALME-3M melanoma = tested on: MALME-3M melanoma
SF-268 CNS = tested on: SF-268 CNS
UO-31 renal = tested on: UO-31 renal
SK-MEL-28 melanoma = tested on: SK-MEL-28 melanoma
LOX IMVI melanoma = tested on: LOX IMVI melanoma
KM12 colon = tested on: KM12 colon
SNB-19 CNS = tested on: SNB-19 CNS
HL-60(TB) leukemia = tested on: HL-60(TB) leukemia
TK-10 renal = tested on: TK-10 renal
UACC-257 melanoma = tested on: UACC-257 melanoma
MDA-MB-231 breast = tested on: MDA-MB-231 breast
MDA-MB-435 = tested on: MDA-MB-435
HOP-92 NSCLC = tested on: HOP-92 NSCLC
SF-539 CNS = tested on: SF-539 CNS
A549 NSCLC = tested on: A549 NSCLC
HOP-62 NSCLC = tested on: HOP-62 NSCLC
IGROV1 ovarian = tested on: IGROV1 ovarian
CCRF-CEM leukemia = tested on: CCRF-CEM leukemia
DU-145 prostate = tested on: DU-145 prostate
NCI-H460 lung = tested on: NCI-H460 lung
HCC-2998 colon = tested on: HCC-2998 colon
NCI/ADR-RES ovarian = tested on: NCI/ADR-RES ovarian
SNB-75 CNS = tested on: SNB-75 CNS
SW-620 colon = tested on: SW-620 colon
K-562 leukemia = tested on: K-562 leukemia
HT29 colon = tested on: HT29 colon

## COc1ccc2[nH]cc(-c3cc4nc(-c5cn(C)c6ncccc56)cc(N)n4n3)c2c1
NCI-H226 lung
  GI50: 20.4 µM
  TGI: 57.2 µM
RPMI-8226 leukemia
  GI50: 3.05 µM
  TGI: > 100 µM
SR leukemia
  GI50: 2.55 µM
  TGI: > 100 µM
OVCAR-8 ovarian
  GI50: 4.93 µM
  TGI: > 100 µM
OVCAR-3 ovarian
  GI50: 12.5 µM
  TGI: > 100 µM
PC-3 prostate
  GI50: 6.67 µM
  TGI: > 100 µM
MCF7 breast
  GI50: 2.01 µM
  TGI: 4.94 µM
HCT-116 colon
  GI50: 3.6 µM
  TGI: 33.5 µM
OVCAR-4 ovarian
  GI50: 2.06 µM
  TGI: 5.15 µM
HCT-15 colon
  GI50: 1.91 µM
  TGI: 4.53 µM
T-47D breast
  GI50: 5.77 µM
  TGI: 90.1 µM
NCI-H522 lung
  GI50: 4.48 µM
  TGI: > 100 µM
BT-549 breast
  GI50: 7.03 µM
  TGI: 38.3 µM
ACHN renal
  GI50: 3.48 µM
  TGI: 12.5 µM
786-0 renal
  GI50: 1.54 µM
  TGI: 2.92 µM
CAKI-1 renal
  GI50: 4.03 µM
  TGI: 23.5 µM
SK-OV-3 ovarian
  GI50: 52.8 µM
  TGI: > 100 µM
UACC-62 melanoma
  GI50: 14.2 µM
  TGI: 27.8 µM
M14 melanoma
  GI50: 4.56 µM
  TGI: 32.3 µM
HS 578T breast
  GI50: 20.3 µM
  TGI: 64.6 µM
RXF 393 renal
  GI50: 1.67 µM
  TGI: 3.27 µM
SF-295 CNS
  GI50: 1.68 µM
  TGI: 3.26 µM
COLO 205 colon
  GI50: 4.71 µM
  TGI: > 100 µM
SK-MEL-5 melanoma
  GI50: 6.18 µM
  TGI: 19.3 µM
A498 renal
  GI50: 25.3 µM
  TGI: 49.4 µM
SN12C renal
  GI50: 6.93 µM
  TGI: 23.8 µM
EKVX NSCLC
  GI50: 8.55 µM
  TGI: 62.3 µM
MDA-MB-468 breast
  GI50: 1.53 µM
  TGI: 3.12 µM
OVCAR-5 ovarian
  GI50: 4.66 µM
  TGI: 19.2 µM
SK-MEL-2 melanoma
  GI50: 19.3 µM
  TGI: 53.2 µM
MOLT-4 leukemia
  GI50: 1.79 µM
  TGI: > 100 µM
NCI-H23 lung
  GI50: 6.29 µM
  TGI: 24.7 µM
MALME-3M melanoma
  GI50: 5.02 µM
  TGI: 18.3 µM
SF-268 CNS
  GI50: 13.5 µM
  TGI: > 100 µM
UO-31 renal
  GI50: 3.59 µM
  TGI: 17.5 µM
SK-MEL-28 melanoma
  GI50: 10.8 µM
  TGI: 23.4 µM
LOX IMVI melanoma
  GI50: 2.02 µM
  TGI: 3.6 µM
KM12 colon
  GI50: 3.41 µM
  TGI: > 100 µM
SNB-19 CNS
  GI50: 8.67 µM
  TGI: 32.2 µM
HL-60(TB) leukemia
  GI50: 1.48 µM
  TGI: 4.78 µM
TK-10 renal
  GI50: 19.1 µM
  TGI: > 100 µM
UACC-257 melanoma
  GI50: 21.5 µM
  TGI: 55.4 µM
MDA-MB-231 breast
  GI50: 2.33 µM
  TGI: 5.2 µM
MDA-MB-435
  GI50: 10.8 µM
  TGI: 27.8 µM
HOP-92 NSCLC
  GI50: 4.84 µM
  TGI: 51.7 µM
SF-539 CNS
  GI50: 1.63 µM
  TGI: 3.05 µM
A549 NSCLC
  GI50: 2.75 µM
  TGI: > 100 µM
HOP-62 NSCLC
  GI50: 10.2 µM
  TGI: > 100 µM
IGROV1 ovarian
  GI50: 2.12 µM
  TGI: 4.93 µM
CCRF-CEM leukemia
  GI50: 2.56 µM
  TGI: > 100 µM
DU-145 prostate
  GI50: 6.36 µM
  TGI: > 100 µM

## COc1cc2cc(C(=O)N3C[C@@H](CCl)c4c3cc(OC(=O)N(C)CCSSCCN3CCOCC3)c3ccccc43)[nH]c2c(OC)c1OC
NCI-H226 lung
  GI50: 0.0295 µM
  TGI: 0.122 µM
RPMI-8226 leukemia
  GI50: 1 µM
  TGI: > 25 µM
SR leukemia
  GI50: 0.0197 µM
  TGI: > 25 µM
OVCAR-8 ovarian
  GI50: 0.125 µM
  TGI: 1.52 µM
NCI-H460 lung
  GI50: 0.0263 µM
  TGI: > 9.66 µM
OVCAR-3 ovarian
  GI50: 0.575 µM
  TGI: 1.63 µM
PC-3 prostate
  GI50: 0.214 µM
  TGI: > 25 µM
MCF7 breast
  GI50: 0.0457 µM
  TGI: 2.24 µM
HCT-116 colon
  GI50: 0.612 µM
  TGI: > 25 µM
OVCAR-4 ovarian
  GI50: 0.621 µM
  TGI: 1.83 µM
HCC-2998 colon
  GI50: 0.154 µM
  TGI: 0.575 µM
HCT-15 colon
  GI50: 0.335 µM
  TGI: 2.99 µM
T-47D breast
  GI50: 1.01 µM
  TGI: 5.72 µM
NCI-H522 lung
  GI50: 1.33 µM
  TGI: 7.37 µM
BT-549 breast
  GI50: 0.0665 µM
  TGI: 0.33 µM
ACHN renal
  GI50: 0.0193 µM
  TGI: 0.554 µM
786-0 renal
  GI50: 0.196 µM
  TGI: 1.05 µM
CAKI-1 renal
  GI50: 0.137 µM
  TGI: 5.73 µM
NCI/ADR-RES ovarian
  GI50: 0.362 µM
  TGI: 1.29 µM
SK-OV-3 ovarian
  GI50: 0.107 µM
  TGI: 0.925 µM
UACC-62 melanoma
  GI50: 0.13 µM
  TGI: 0.482 µM
M14 melanoma
  GI50: 0.0699 µM
  TGI: 0.318 µM
HS 578T breast
  GI50: 0.627 µM
  TGI: 1.97 µM
RXF 393 renal
  GI50: 0.028 µM
  TGI: 0.0951 µM
SF-295 CNS
  GI50: 0.0872 µM
  TGI: 1.47 µM
COLO 205 colon
  GI50: 1.15 µM
  TGI: 2.68 µM
SNB-75 CNS
  GI50: 0.348 µM
  TGI: 0.921 µM
SW-620 colon
  GI50: 0.865 µM
  TGI: > 25 µM
A498 renal
  GI50: 0.272 µM
  TGI: 1.33 µM
SN12C renal
  GI50: 0.069 µM
  TGI: 1.92 µM
EKVX NSCLC
  GI50: 0.178 µM
  TGI: 0.844 µM
MDA-MB-468 breast
  GI50: 0.133 µM
  TGI: 0.505 µM
OVCAR-5 ovarian
  GI50: 0.228 µM
  TGI: 1.06 µM
SK-MEL-2 melanoma
  GI50: 0.21 µM
  TGI: 0.463 µM
MOLT-4 leukemia
  GI50: 0.0519 µM
  TGI: > 25 µM
NCI-H23 lung
  GI50: 0.0333 µM
  TGI: 0.164 µM
K-562 leukemia
  GI50: 0.608 µM
  TGI: > 25 µM
MALME-3M melanoma
  GI50: 0.229 µM
  TGI: 0.673 µM
SF-268 CNS
  GI50: 0.0454 µM
  TGI: > 25 µM
UO-31 renal
  GI50: 0.0692 µM
  TGI: 0.452 µM
SK-MEL-28 melanoma
  GI50: 0.128 µM
  TGI: 0.293 µM
LOX IMVI melanoma
  GI50: 0.0417 µM
  TGI: 0.334 µM
KM12 colon
  GI50: 0.286 µM
  TGI: > 8.85 µM
SNB-19 CNS
  GI50: 0.095 µM
  TGI: 2.55 µM
HL-60(TB) leukemia
  GI50: 0.251 µM
  TGI: 4.95 µM
TK-10 renal
  GI50: 0.819 µM
  TGI: 3.12 µM
UACC-257 melanoma
  GI50: 0.642 µM
  TGI: 4.32 µM
MDA-MB-231 breast
  GI50: 0.27 µM
  TGI: 1.18 µM
MDA-MB-435
  GI50: 0.141 µM
  TGI: 0.361 µM
HOP-92 NSCLC
  GI50: 1.13 µM
  TGI: > 18.6 µM
SF-539 CNS
  GI50: 0.0257 µM
  TGI: 0.116 µM
HOP-62 NSCLC
  GI50: 0.0294 µM
  TGI: 0.511 µM
HT29 colon
  GI50: 0.496 µM
  TGI: > 8.76 µM
IGROV1 ovarian
  GI50: 0.358 µM
  TGI: 1.46 µM
CCRF-CEM leukemia
  GI50: 0.281 µM
  TGI: > 25 µM
DU-145 prostate
  GI50: 0.0341 µM
  TGI: > 25 µM
